This assay has as its target T1, human EP3 receptor (Homo sapiens, UniProt P43115).
T1 construct: expressed in transfected cells; host or cells: CHO K1 (Chinese Hamster Ovary), stably co-transfected with Galpha16 and mitochondrial clytin
T1 sequence (P43115 1-390): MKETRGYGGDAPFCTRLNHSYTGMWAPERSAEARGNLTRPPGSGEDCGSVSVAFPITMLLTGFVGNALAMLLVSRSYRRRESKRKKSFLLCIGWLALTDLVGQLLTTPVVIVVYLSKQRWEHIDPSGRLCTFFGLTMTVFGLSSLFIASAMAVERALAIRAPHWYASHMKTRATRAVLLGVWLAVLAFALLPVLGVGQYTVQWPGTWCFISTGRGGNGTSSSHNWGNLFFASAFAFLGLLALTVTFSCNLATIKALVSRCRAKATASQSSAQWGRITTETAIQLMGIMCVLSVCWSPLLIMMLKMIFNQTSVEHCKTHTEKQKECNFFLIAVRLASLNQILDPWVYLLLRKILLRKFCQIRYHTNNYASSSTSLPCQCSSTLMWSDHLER
Put plainly: Cellular in vitro assay for determining EP3 receptor activity (human EP3 cell line, sulprostone-stimulated calcium luminescence). It is filed as cell-based. Conditions: CHO cells expressing human EP3 and mitochondrial Clytin; antagonist mode, sulprostone at EC50; read-out: EP3 CHO mtCLY ANTAG IC50. The protocol:
B-1. Cellular In Vitro Assay for Determining EP3 Receptor Activity
The identification of antagonists of the EP3 receptor from humans and rats as well as the quantification of the activity of the compounds of the invention was carried out using recombinant cell lines. These cell lines originally derive from a hamsters ovary epithelial cell (Chinese Hamster Ovary, CHO K1, ATCC: American Type Culture Collection, Manassas, Va. 20108, USA). The test cell lines constitutively express the human or rat EP3 receptors. The naturally Gαi-coupled human and rat EP3 receptors were stably co-transfected with Gα16 into cells that are also stably transfected with a mitochondrial form of the calcium-sensitive photoproteins Clytin (human EP3) or Photina (rat EP3), which, after reconstitution with the cofactor coelenterazine, emit light when there are increases in free calcium concentrations (Nature 1992, 358, 325-327; Gene 1995, 153 (2), 273-274). The resulting EP3 receptor cells react to stimulation of the recombinantly expressed EP3 receptors by the agonist sulprostone with intracellular release of calcium ions, which can be quantified by the resulting photoprotein luminescence. Antagonists inhibit the receptor signaling, leading to reduced calcium release and luminescence. The bioluminescence of the cell lines is detected using a suitable luminometer (Trends Pharmacol. Sci. 1996, 17, 235-237).
Human and Rat EP3 Cell Lines:
On the day before the assay, the cells are plated out in culture medium (OptiMEM, 1% FCS, 2 mM glutamine, 10 mM HEPES, 5 μg/ml coelenterazine) in 384-well microtiter plates and kept in a cell incubator (96% humidity, 5% v/v CO2, 37° C.). On the day of the assay, test compounds in various concentrations are placed for 10 minutes in the wells of the microtiter plate before the agonist sulprostone at EC50 concentration is added. The resulting light signal is measured immediately in a luminometer. All concentrations are measured in quadruples.
With `O=C(N[C@H](CCO)c1ccc(F)cc1)c1cc2c(=O)[nH]c(-c3ccc4ccccc4n3)cn2n1` [6-12], the concentration for half-maximal inhibition (IC50) worked out at 3.05 nM.
For `CC[C@@H](C)NC(=O)c1nn2cc(-c3ccc(Cl)c(C)c3)[nH]c(=O)c2c1C(F)(F)C(F)(F)F` [6-479] the value was 2.3 nM; for `CCn1cc(CNC(=O)c2nn3cc(-c4ccc5ccccc5c4)[nH]c(=O)c3c2C#N)c(C)n1` [Example 3-44, 3-Cyano-N-[(1-ethyl-3-methyl-1H-pyrazol-4-yl)methyl]-6-(naphthalen-2-yl)-4-oxo-4,5-dihydropyrazolo[1,5-a]pyrazine-2-carboxamide], 2.6 nM.
Under `Cc1ccc(-c2cn3nc(C(=O)N[C@H](CCO)c4ccc(F)cc4)cc3c(=O)[nH]2)cc1F` [6-638] stands 1.36 nM; under `Cc1cccc2ncc(-c3cn4nc(C(=O)N[C@H](CCO)c5ccc(F)cc5)c(C(C)C)c4c(=O)[nH]3)cc12` [Example 1-56, N-[(1R)-1-(4-Fluorophenyl)-3-hydroxypropyl]-6-(5-methylquinolin-3-yl)-4-oxo-3-(propan-2-yl)-4,5-dihydropyrazolo[1,5-a]pyrazine-2-carboxamide], 0.985 nM.
In the case of `Cc1ccc(-c2cn3nc(C(=O)N[C@H](CN4CC[C@@H](F)C4)c4ccccc4)cc3c(=O)[nH]2)cc1F` [6-637], the IC50 was determined as 3.6 nM.
For `Cc1ccc(-c2cn3nc(C(=O)NC4(c5ccc(F)cc5)CC4)cc3c(=O)[nH]2)cc1C(F)(F)F` [6-26] the value was 5 nM; for `Cc1ccc(-c2cn3nc(C(=O)N[C@@H](c4ccc(F)cc4)C(C)(C)O)c(C(F)(F)C(F)(F)F)c3c(=O)[nH]2)cc1F` [6-492], 1.8 nM; for `CC(NC(=O)c1nn2cc(-c3ccc4ccccc4c3)[nH]c(=O)c2c1C#N)c1ccccc1OC(F)F` (centres unmarked) [Example 3-60, 3-Cyano-N-[1-[2-(difluoromethoxy)phenyl]ethyl]-6-(2-naphthyl)-4-oxo-5H-pyrazolo[1,5-a]pyrazine-2-carboxamide], 1.85 nM.
Under `COC[C@@H](NC(=O)c1nn2cc(-c3ccc(C)c(C)c3)[nH]c(=O)c2c1C#N)c1ccccc1` [Example 1-74, 3-Cyano-6-(3,4-dimethylphenyl)-N-[(1S)-2-methoxy-1-phenylethyl]-4-oxo-4,5-dihydropyrazolo-[1,5-a]pyrazine-2-carboxamide] stands 0.92 nM.
Take `Cc1ccc(-c2cn3nc(C(=O)NCC(O)C(F)(F)F)c(C(F)(F)F)c3c(=O)[nH]2)cc1Cl` (racemic) [6-158]: the IC50 came out at 1.55 nM.
For `Cc1cc(-c2cn3nc(C(=O)N[C@@H](c4ccc(F)cc4)C(F)(F)CO)c(C4CC4)c3c(=O)[nH]2)ccc1Cl` [Example 1-172, 6-(4-Chloro-3-methylphenyl)-3-cyclopropyl-N-[(1S)-2,2-difluoro-1-(4-fluorophenyl)-3-hydroxpropyl]-4-oxo-4,5-dihydropyrazolo[1,5-a]pyrazine-2-carboxamide] the value was 0.86 nM.
For `O=C(N[C@H](CCO)c1ccc(F)cc1)c1nn2cc(-c3ccc(Cl)c(C(F)F)c3)[nH]c(=O)c2c1C1CC1` [6-668] the value was 1.09 nM.
For `Cc1ccc(-c2cn3nc(C(=O)N[C@@H](CCO)c4ccc(F)cc4)cc3c(=O)[nH]2)cc1C` [Example 1-70, 6-(3,4-Dimethylphenyl)-N-[(1S)-1-(4-fluorophenyl)-3-hydroxpropyl]-4-oxo-4,5-dihydropyrazolo-[1,5-a]pyrazine-2-carboxamide] the value was 3.15 nM; for `Cc1ccc(-c2cn3nc(C(=O)NCCNCC(F)F)c(C(F)(F)F)c3c(=O)[nH]2)cc1Cl` [6-165], 9.75 nM; for `Cc1ccc(-c2cn3nc(C(=O)NCCC(O)C(F)(F)F)c(C4CC4)c3c(=O)[nH]2)cc1F` (single isomer, unassigned) [6-367], 0.69 nM.
For `Cc1cc(-c2cn3nc(C(=O)NCCC(O)C(F)(F)F)c(C4CC4)c3c(=O)[nH]2)ccc1Cl` (single isomer, unassigned) [6-310], the IC50 is 0.91 nM.
For `Cc1cc(-c2cn3nc(C(=O)NC(c4ccc(F)cc4)C4(O)CC4)c(C(F)(F)F)c3c(=O)[nH]2)ccc1Cl` (racemic) [6-210] the value was 1.45 nM; for `COc1ccc(C2(NC(=O)c3cc4c(=O)[nH]c(-c5ccc6ccccc6c5)cn4n3)CN(C(=O)OC(C)(C)C)C2)cn1` [Example 1-6, tert.-Butyl 3-(6-methoxypyridin-3-yl)-3-({[6-(naphthalen-2-yl)-4-oxo-4,5-dihydropyrazolo[1,5-a]-pyrazin-2-yl]carbonyl}amino)azetidine-1-carboxylate], 1.28 nM; for `CC[C@H](C)NC(=O)c1nn2cc(-c3ccc(Cl)c(C)c3)[nH]c(=O)c2c1C(F)(F)F` [6-216], 5.2 nM.
Under `Cc1ccc(-c2cn3nc(C(=O)NCC(O)C(F)(F)F)c(C4CC4)c3c(=O)[nH]2)cc1C` (single isomer, unassigned) [6-437] stands 0.77 nM; under `Cc1cc(-c2cn3nc(C(=O)NC4(c5ccccc5)CCOCC4)c(C4CC4)c3c(=O)[nH]2)ccc1Cl` [6-342], 1.07 nM.
Under `CN1CC(NC(=O)c2nn3cc(-c4ccc5ccccc5c4)[nH]c(=O)c3c2C(F)(F)F)(c2ccc(F)cc2)C1` [Example 1-32, N-[3-(4-Fluorophenyl)-1-methylazetidin-3-yl]-6-(naphthalen-2-yl)-4-oxo-3-(trifluoromethyl)-4,5-dihydropyrazolo[1,5-a]pyrazine-2-carboxamide] stands 1.6 nM; under `Cc1ccc(-c2cn3nc(C(=O)NCC(O)C(F)(F)F)c(C4CC4)c3c(=O)[nH]2)cc1Cl` (racemic) [6-258], 0.82 nM.
In the case of `O=C(NC(CCO)c1ccc(F)cc1)c1cc2c(=O)[nH]c(-c3ccc4cccnc4c3)cn2n1` (centres unmarked) [Example 1-62, N-[1-(4-Fluorophenyl)-3-hydroxpropyl]-4-oxo-6-(7-quinolyl)-5H-pyrazolo[1,5-a]pyrazine-2-carboxamide], the IC50 was determined as 3.6 nM.
Under `Cc1ccc(-c2cn3nc(C(=O)N[C@H](C)C(C)C)c(C(C)C)c3c(=O)[nH]2)cc1C` [Example 1-141, 6-(3,4-Dimethylphenyl)-N-[(2R)-3-methylbutan-2-yl]-4-oxo-3-(propan-2-yl)-4,5-dihydropyrazolo-[1,5-a]pyrazine-2-carboxamide] stands 1.7 nM.
Under `CC(NC(=O)c1cc2c(=O)[nH]c(-c3ccc4c(c3)OCCO4)cn2n1)c1ccc(F)cc1` (centres unmarked) [Example 5-2, 6-(2,3-Dihydro-1,4-benzodioxin-6-yl)-N-[1-(4-fluorophenyl)ethyl]-4-oxo-5H-pyrazolo[1,5-a]pyrazine-2-carboxamide] stands 1.65 nM.
Under `C[C@H](NC(=O)c1nn2cc(-c3ccc(Cl)c(F)c3)[nH]c(=O)c2c1C1CC(F)(F)C1)C1CC1` [6-556] stands 2.15 nM.
Take `Cc1c(C(=O)NC(CCO)c2ccccc2Cl)nn2c(C)c(-c3ccc4ccccc4c3)[nH]c(=O)c12` (centres unmarked) [Example 3-68, N-[1-(2-Chlorophenyl)-3-hydroxypropyl]-3,7-dimethyl-6-(2-naphthyl)-4-oxo-5H-pyrazolo[1,5-a]pyrazine-2-carboxamide]: the IC50 was determined as 1.85 nM.
In the case of `Cc1cc(-c2cn3nc(C(=O)NC(C)C4CCC4)c(C4CC4)c3c(=O)[nH]2)ccc1Cl` (racemic) [6-298], the IC50 is 2.85 nM.
For `Cc1ccc(-c2cn3nc(C(=O)NCC(N)C(F)(F)F)c(C4CC4)c3c(=O)[nH]2)cc1F` (racemic) [6-395] the value was 6.6 nM; for `COC[C@@H](C)NC(=O)c1nn2cc(-c3ccc4ccccc4c3)[nH]c(=O)c2c1C(F)(F)F` [6-516], 4.4 nM.
For `CN1CC(NC(=O)c2cc3c(=O)[nH]c(-c4ccc5c(c4)CCC5)cn3n2)(c2ccc(F)cc2)C1` [Example 1-96, 6-(2,3-Dihydro-1H-inden-5-yl)-N-[3-(4-fluorophenyl)-1-methylazetidin-3-yl]-4-oxo-4,5-dihydropyrazolo[1,5-a]pyrazine-2-carboxamide] the value was 2.65 nM; for `Cc1cccc2ncc(-c3cn4nc(C(=O)Nc5ccnn5C)c(C(C)C)c4c(=O)[nH]3)cc12` [Example 4-19, N-(1-Methyl-1H-pyrazol-5-yl)-6-(5-methylquinolin-3-yl)-4-oxo-3-(propan-2-yl)-4,5-dihydropyrazolo[1,5-a]pyrazine-2-carboxamide], 1.75 nM; for `Cc1ccc(-c2cn3nc(C(=O)N[C@@H](C)C(C)C)c(C4CC4)c3c(=O)[nH]2)cc1Cl` [6-252], 0.84 nM.

For the origin of these results see patent US20220324865A1 (Bayer Aktiengesellschaft, priority 2018, published 2022).
